One test has as its system HL-60. Briefly: Antiproliferative activity against human HL60 cells assessed as cell growth inhibition measured after 48 hrs by MTT assay. In kind it is functional, cell-based. As to conditions: HL-60, 48 h.
The subject of test [1] is HepG2. As to the kind of experiment: Antiproliferative activity against human HepG2 cells assessed as cell growth inhibition measured after 48 hrs by MTT assay. In kind it is functional, cell-based. The settings on record: HepG2, 48 h.
In another test the test system is MCF7. As to the kind of experiment: Antiproliferative activity against human MCF7 cells assessed as cell growth inhibition measured after 48 hrs by MTT assay. Type of test: functional, cell-based. As to conditions: MCF7, 48 h.
Test [2] deals with HepG2. As to the kind of experiment: Induction of apoptosis in human HepG2 cells assessed as viable cells at IC50 concentration by annexinV-FITC/propidium iodide staining based flow cytometry (reference value: 98.41 %). Type of test: functional.
For test [3], the target named is Tubulin (Sus scrofa, UniProt P02554+P02550). Briefly: Inhibition of porcine brain tubulin polymerization assessed as decrease in fluorescence intensity measured every 60 sec for 90 mins in presence of GTP by DAPI staining based fluorescence assay.
The test system of test [4] is HepG2. Briefly: Induction of apoptosis in human HepG2 cells assessed as late apoptotic cells at IC50 concentration by annexinV-FITC/propidium iodide staining based flow cytometry (reference value: 0.38 %). Type of test: functional.
Test [5] deals with HepG2. As to the kind of experiment: Induction of apoptosis in human HepG2 cells assessed as activation of caspase 3 measured after 0.5 to 1 hrs by fluorescence assay relative to control. Type of test: functional.
Test [6] has as its system HepG2. Briefly: Induction of apoptosis in human HepG2 cells assessed as necrotic cells at IC50 concentration by annexinV-FITC/propidium iodide staining based flow cytometry (reference value: […]). Type of test: functional.
For test [7], the system named is HepG2. Briefly: Cell cycle arrest in human HepG2 cells assessed as accumulation at S phase at IC50 concentration by DNase/propidium iodide staining based flow cytometry analysis (reference value: 32.51 %). In kind it is functional.
Test [8] has as its target Tubulin beta (Homo sapiens) (UniProt P68371+Q9H4B7+Q13509+P04350+Q3ZCM7+P07437+Q13885+Q9BVA1+Q9BUF5+A6NNZ2). Briefly: Inhibition of tubulin beta polymerization in human HepG2 cells at IC50 using TMB substrate preincubated for 2 hrs followed by substrate addition measured after 15 to 20 mins in presence of GTP by ELISA relative to control. Type of test: cell-based.
Test [9] relates to HepG2. Briefly: Cell cycle arrest in human HepG2 cells assessed as accumulation at G0/G1 phase at IC50 concentration by DNase/propidium iodide staining based flow cytometry analysis (reference value: 57.43 %). Type of test: functional.
Test [10] has as its system HepG2. As to the kind of experiment: Cell cycle arrest in human HepG2 cells assessed as accumulation at pre-G1 phase at IC50 concentration by DNase/propidium iodide staining based flow cytometry analysis (reference value: 1.59 %). Type of test: functional.
Test [11] relates to HepG2. As to the kind of experiment: Induction of apoptosis in human HepG2 cells assessed as early apoptotic cells at IC50 concentration by annexinV-FITC/propidium iodide staining based flow cytometry (reference value: 0.69 %). In kind it is functional.
For test [12], the system named is HepG2. As to the kind of experiment: Cell cycle arrest in human HepG2 cells assessed as accumulation at G2/M phase at IC50 concentration by DNase/propidium iodide staining based flow cytometry analysis (reference value: 10.06 %). Type of test: functional.
Test [13] addresses Tubulin (Bos taurus, UniProt Q6B856+Q862L2+Q862F3). Briefly: Inhibition of [3H] colchicine binding to bovine brain tubulin incubated for 30 mins by scintillation proximity assay.

Experimental findings from ChEMBL document CHEMBL4311964, “Potent combretastatin A-4 analogs containing 1,2,4-triazole: Synthesis, antiproliferative, anti-tubulin activity, and docking study” (Eur J Med Chem, 2019) are described below.

Each structure is given as a SMILES string.

Consider `COc1cc(-c2nc(C(=O)Nc3ccc(C(=O)O)cc3)nn2-c2ccc(F)c(Cl)c2)cc(OC)c1OC`, for which the results for the IC50 in the test on HL-60, in the test on HepG2 [1] and in the test on MCF7 were 1180 nM, 1590 nM and 50 nM, respectively.
Take `COc1cc(-c2nc(C(=O)Nc3ccc(F)c(Cl)c3)nn2-c2ccc(F)c(Cl)c2)cc(OC)c1OC`: the IC50 came out at 5470 nM in the test with HL-60, 900 nM with HepG2 [1] and 120 nM in the test with MCF7.
As for `COc1ccc(-n2nc(C(=O)Nc3ccc(F)c(F)c3F)nc2-c2cc(OC)c(OC)c(OC)c2)cc1Cl`, the Activity in the test with HepG2 [2] is reported as 68.96%; in the test on HepG2 [4], 22.2%; with HepG2 [6] it was 2.78%; in the test with HepG2 [7], 18.61%; in the test with HepG2 [9], 26.31%; with HepG2 [10] it was 31.04%. Moreover, the figures for the Activity with HepG2 [11] and in the test with HepG2 [12] were 6.06% and 55.08%, respectively. Further, the IC50 was 0.76 µM at Tubulin [3], 2660 nM with HL-60, 40 nM with HepG2 [1] and 2100 nM in the test with MCF7. Also, the “fold change (FC)” value in the test with HepG2 [5] worked out at 9. Besides, the inhibition in test [8] was 82%.
As for `COc1cc(-c2nc(C(=O)Nc3ccc(OC(F)(F)F)cc3)nn2-c2ccc(F)c(Cl)c2)cc(OC)c1OC`, the IC50 came out at 160 nM with HL-60, 100 nM in the test on HepG2 [1] and 310 nM in the test on MCF7.
The like results for `COc1cc(-c2nc(C(=O)Nc3ccccc3)nn2-c2ccc(F)c(Cl)c2)cc(OC)c1OC` were, in that order, 1000 nM, 2230 nM and 170 nM.
The like results for `COc1cc(-c2nc(C(=O)Nc3cc(F)cc(F)c3)nn2-c2ccc(F)c(Cl)c2)cc(OC)c1OC` were, in that order, 3750 nM, 710 nM and 4910 nM.
The like results for `COc1cc(-c2nc(C(=O)Nc3cccc(F)c3)nn2-c2ccc(F)c(Cl)c2)cc(OC)c1OC` were, in that order, 620 nM, 990 nM and 110 nM.
As to `COc1ccc(NC(=O)c2nc(-c3cc(OC)c(OC)c(OC)c3)n(-c3ccc(F)c(Cl)c3)n2)cc1Cl`, the IC50 came out at 700 nM with HL-60, 2140 nM with HepG2 [1] and 1010 nM with MCF7.
As for `COc1ccccc1NC(=O)c1nc(-c2cc(OC)c(OC)c(OC)c2)n(-c2ccc(F)c(Cl)c2)n1`, the Activity with HepG2 [2] is given as 80.78%; in the test on HepG2 [4], 11.32%; with HepG2 [6], 2.66%; in the test with HepG2 [7] it was 24.67%; with HepG2 [9] it was 34.77%; with HepG2 [10], 19.22%. The Activity is recorded as 5.24% in the test on HepG2 [11] and 40.56% in the test with HepG2 [12]. Besides, the IC50 is 1.03 µM on Tubulin [3]; 3.58 µM on Tubulin [13]; 4 nM in the test on HL-60; 350 nM with HepG2 [1]; 1510 nM with MCF7. The “fold change (FC)” value with HepG2 [5] is given as 7. The molecule also gave a dissociation constant (Kd) at Tubulin [13] of 0.54 µM. The molecule further came in with a Ki on Tubulin [13] of 0.26 µM. Besides, the inhibition in test [8] was 62%.
Consider `COc1cc(-c2nc(C(=O)Nc3ccc(F)cc3)nn2-c2ccc(F)c(Cl)c2)cc(OC)c1OC`, for which the IC50 in the test on HL-60 came out at 300 nM; in the test on HepG2 [1] it was 520 nM; in the test on MCF7 it was 180 nM.
The like results for `COc1ccc(C)cc1NC(=O)c1nc(-c2cc(OC)c(OC)c(OC)c2)n(-c2ccc(F)c(Cl)c2)n1` were, in that order, 1820 nM, 2820 nM and 130 nM.
The like results for `CCOc1ccc(NC(=O)c2nc(-c3cc(OC)c(OC)c(OC)c3)n(-c3ccc(F)c(Cl)c3)n2)cc1` were, in that order, 600 nM, 1490 nM and 520 nM.
With `COc1cc(-c2nc(C(=O)Nc3ccccc3F)nn2-c2ccc(F)c(Cl)c2)cc(OC)c1OC`, the IC50 was found to be 10 nM in the test on HL-60, 12700 nM in the test on HepG2 [1] and 190 nM in the test on MCF7.
In the case of `COc1ccc(NC(=O)c2nc(-c3cc(OC)c(OC)c(OC)c3)n(-c3ccc(F)c(Cl)c3)n2)cc1`, the figures for the IC50 with HL-60, in the test with HepG2 [1] and in the test with MCF7 were 2260 nM, 750 nM and 650 nM, respectively.
The like results for `COc1ccc(NC(=O)c2nc(-c3cc(OC)c(OC)c(OC)c3)n(-c3ccc(F)c(Cl)c3)n2)c(C)c1` were, in that order, 360 nM, 580 nM and 1560 nM.
The like results for `COc1ccc(-n2nc(C(=O)Nc3ccc(OC(F)(F)F)cc3)nc2-c2cc(OC)c(OC)c(OC)c2)cc1Cl` were, in that order, 810 nM, 7110 nM and 39 nM.
The like results for `COc1cccc(NC(=O)c2nc(-c3cc(OC)c(OC)c(OC)c3)n(-c3ccc(F)c(Cl)c3)n2)c1` were, in that order, 800 nM, 560 nM and 440 nM.
`COc1ccc(-n2nc(C(=O)Nc3ccc(F)c(Cl)c3)nc2-c2cc(OC)c(OC)c(OC)c2)cc1Cl`: the IC50 stood at 0.7 µM at Tubulin [3]; 2.11 µM on Tubulin [13]; 230 nM in the test on HL-60; 680 nM in the test with HepG2 [1]; 30 nM in the test with MCF7. Besides, the Kd at Tubulin [13] came out at 0.32 µM. Moreover, the Ki at Tubulin [13] was 0.15 µM. Also, the inhibition in [8] is 73%.
`COc1cc(-c2nc(C(=O)Nc3ccc(F)c(F)c3F)nn2-c2ccc(F)c(Cl)c2)cc(OC)c1OC`: the IC50 worked out at 1320 nM in the test with HL-60, 410 nM in the test on HepG2 [1] and 140 nM in the test on MCF7.
